From the NIST ThermoML archive (doi:10.1021/acs.jced.9b00011)
Numbers after ± are expanded uncertainties.

How the values were obtained:
[1] = Molar enthalpy of transition or fusion; conditions: Crystal; DSC
[2] = Crystal; DSC

COc1ccc(OC)c(N)c1 [2,5-dimethoxyaniline]
Molar enthalpy of transition or fusion [1]: 5.55 ± 1.1 kcal/mol | Triple point temperature [2]: 352.56 ± 2.3 K

COc1cc(Cl)c(OC)cc1N [4-chloro-2,5-dimethoxyaniline]
Molar enthalpy of transition or fusion [1]: 5.88 ± 0.908 kcal/mol | Triple point temperature [2]: 389.38 ± 3.7 K
